Assay: xn = mol fraction of the nth substance listed

CCCCCCCCCCCCCC[n+]1ccccc1.O=C([O-])C(O)c1ccccc1 + CC(C)C[C@H](N)C(=O)O + O
electrical conductivity [S/m], 101 kPa
Conditions	293.15 K	298.15 K	303.15 K	308.15 K	313.15 K
x1 = 4.89e-06, x2 = 0.0009002	0.00294	0.00331	0.00369	0.0041	0.0045
x1 = 5.65e-06, x2 = 0.001799	0.00333	0.00365	0.004	0.00436	0.0047
x1 = 6.85e-06, x2 = 0	0.00248	0.00278	0.00309	0.0034	0.0037
x1 = 1.069e-05, x2 = 0.0009002	0.00459	0.0052	0.00582	0.0064	0.0071
x1 = 1.13e-05, x2 = 0.001799	0.00474	0.00522	0.00572	0.0065	0.0071
x1 = 1.424e-05, x2 = 0	0.00472	0.00529	0.00587	0.0065	0.0071
x1 = 1.54e-05, x2 = 0.0009002	0.0059	0.00666	0.0074	0.0083	0.0091
x1 = 1.695e-05, x2 = 0.001799	0.00622	0.00689	0.0075	0.0086	0.0093
x1 = 2.084e-05, x2 = 0.0009002	0.00743	0.0084	0.0093	0.0104	0.0114
x1 = 2.126e-05, x2 = 0	0.00671	0.0076	0.0084	0.0093	0.0101
x1 = 2.205e-05, x2 = 0.001799	0.0077	0.0086	0.0094	0.0106	0.0116
x1 = 2.519e-05, x2 = 0.0009002	0.0086	0.0097	0.0107	0.012	0.0132
x1 = 2.733e-05, x2 = 0.001799	0.0091	0.0102	0.0111	0.0125	0.0137
x1 = 2.811e-05, x2 = 0	0.0086	0.0097	0.0108	0.0122	0.0131
x1 = 2.972e-05, x2 = 0.0009002	0.0098	0.0111	0.0124	0.0138	0.0152
x1 = 3.28e-05, x2 = 0.001799	0.0103	0.0116	0.0129	0.0144	0.0158
x1 = 3.46e-05, x2 = 0	0.0103	0.0116	0.0129	0.0145	0.0157
x1 = 3.552e-05, x2 = 0.0009002	0.0112	0.0126	0.0141	0.0157	0.0174
x1 = 3.863e-05, x2 = 0.001799	0.0115	0.0129	0.0144	0.016	0.0177
x1 = 4.108e-05, x2 = 0	0.0117	0.0131	0.0146	0.0161	0.0179
x1 = 4.186e-05, x2 = 0.0009001	0.0124	0.014	0.0157	0.0175	0.0194
x1 = 4.41e-05, x2 = 0.001799	0.0124	0.0138	0.0155	0.0172	0.0191
x1 = 4.811e-05, x2 = 0	0.0129	0.0144	0.0161	0.0179	0.0198
x1 = 4.838e-05, x2 = 0.0009001	0.0134	0.0151	0.017	0.0189	0.0211
x1 = 5.139e-05, x2 = 0.001799	0.0135	0.0152	0.0168	0.019	0.021
x1 = 5.388e-05, x2 = 0	0.0137	0.0154	0.0172	0.0191	0.0211
x1 = 5.509e-05, x2 = 0.0009001	0.0144	0.0162	0.018	0.0203	0.0225
x1 = 5.868e-05, x2 = 0.001799	0.0146	0.0162	0.018	0.0203	0.0225
x1 = 5.982e-05, x2 = 0	0.0145	0.0163	0.0182	0.0202	0.0224
x1 = 6.179e-05, x2 = 0.0009001	0.0152	0.0172	0.0192	0.0215	0.0239
x1 = 6.559e-05, x2 = 0	0.0153	0.0172	0.0192	0.0213	0.0236
x1 = 6.56e-05, x2 = 0.001799	0.0153	0.0171	0.0192	0.0216	0.0239
x1 = 6.813e-05, x2 = 0.0009001	0.0161	0.0181	0.0203	0.0227	0.0252
x1 = 7.081e-05, x2 = 0	0.016	0.018	0.02	0.0223	0.0246
x1 = 7.216e-05, x2 = 0.001799	0.0161	0.0181	0.0203	0.0227	0.0252
x1 = 7.484e-05, x2 = 0.0009001	0.0169	0.0191	0.0214	0.0239	0.0266
x1 = 7.604e-05, x2 = 0	0.0167	0.0187	0.0209	0.0232	0.0258
x1 = 7.908e-05, x2 = 0.001799	0.0169	0.019	0.0214	0.0238	0.0265
x1 = 8.072e-05, x2 = 0	0.0173	0.0194	0.0217	0.0241	0.0266

CCO + CC[n+]1ccn(CCOC)c1.O=S(=O)([N-]S(=O)(=O)C(F)(F)F)C(F)(F)F
100 kPa, x2 = 0
Conditions	viscosity [mPa·s]
288.15 K	1.334
293.15 K	1.202
298.15 K	1.111
303.15 K	1.003
308.15 K	0.907
313.15 K	0.83
318.15 K	0.76

CCCCCC[n+]1ccn(C)c1C.O=S(=O)([N-]S(=O)(=O)C(F)(F)F)C(F)(F)F + COCCOCCOCCOCCOC
viscosity [mPa·s], 100 kPa
Conditions	293.15 K	298.15 K	308.15 K
x2 = 0	–	129	–
x2 = 0.102	135	103	64
x2 = 0.306	66	51	–

CCO + CCOC(C)(C)C + CCOS(=O)(=O)[O-].CC[n+]1ccn(C)c1
Conditions	viscosity [mPa·s]
298.15 K, 101 kPa, x1 = 1, x2 = 0	1.077

CCCC[N+](CCCC)(CCCC)Cc1ccccc1.[Cl-] + O=C([O-])C1=NN(c2ccc(S(=O)(=O)[O-])cc2)C(=O)C1N=Nc1ccc(S(=O)(=O)[O-])cc1.[Na+].[Na+].[Na+] + O
electrical conductivity [S/m], 101.3 kPa, frequency 0.001 MHz
Conditions	298.15 K	308.15 K	318.15 K
x2 = 0, x1 = 1.802e-05	0.0104	0.0139	0.0173
x2 = 0, x1 = 5.406e-05	0.0231	0.0284	0.0345
x2 = 0, x1 = 9.009e-05	0.0367	0.0457	0.0546

viscosity [mPa·s], 101.3 kPa
Conditions	298.15 K	308.15 K	318.15 K
x2 = 0, x1 = 1.802e-05	0.906	0.775	0.643
x2 = 0, x1 = 5.406e-05	0.923	0.793	0.659
x2 = 0, x1 = 9.009e-05	0.942	–	–

CCCC[N+](CCCC)(CCCC)Cc1ccccc1.[Cl-] + CC(C)[C@H](N)C(=O)O + O
101 kPa
Conditions	electrical conductivity, 298.15 K [S/m]	electrical conductivity, 303.15 K [S/m]	electrical conductivity, 308.15 K [S/m]	viscosity, 298.15 K [mPa·s]	viscosity, 303.15 K [mPa·s]	viscosity, 308.15 K [mPa·s]
x2 = 1.802e-05, x1 = 1.802e-05	0.0145	0.0163	0.0169	–	0.825	0.704
x2 = 1.804e-05, x1 = 5.406e-05	0.0303	0.0313	0.0331	–	–	–
x2 = 1.805e-05, x1 = 9.009e-05	0.0341	0.0371	0.0391	–	–	–
x2 = 4.506e-05, x1 = 1.802e-05	0.0166	0.0172	0.0185	–	0.838	0.719
x2 = 4.509e-05, x1 = 5.405e-05	0.0312	0.0322	0.0342	–	–	–
x2 = 4.511e-05, x1 = 9.009e-05	0.0353	0.0383	0.0406	1.296	–	–
x2 = 7.21e-05, x1 = 1.802e-05	0.0185	0.0193	0.0209	–	0.851	0.733
x2 = 7.214e-05, x1 = 5.405e-05	0.0325	0.0335	0.0356	1.273	–	–
x2 = 7.218e-05, x1 = 9.009e-05	0.0365	0.0394	0.0421	–	–	–
x2 = 9.913e-05, x1 = 1.802e-05	0.0205	0.0215	0.0234	–	0.864	0.748
x2 = 9.919e-05, x1 = 5.405e-05	0.0338	0.0346	0.0363	1.288	–	–
x2 = 9.925e-05, x1 = 9.008e-05	0.0379	0.0409	0.0435	–	1.165	–
x2 = 0.0001262, x1 = 1.802e-05	0.0222	0.0236	0.0249	–	0.878	0.763
x2 = 0.0001262, x1 = 5.405e-05	0.0347	0.0357	0.0377	–	–	–
x2 = 0.0001263, x1 = 9.008e-05	0.0391	0.0421	0.0447	–	–	–
x2 = 0.0001532, x1 = 1.802e-05	0.0235	0.0251	0.0266	–	–	0.779
x2 = 0.0001533, x1 = 5.405e-05	0.0356	0.0368	0.0389	–	–	–
x2 = 0.0001534, x1 = 9.008e-05	0.0407	0.0435	0.0463	–	–	–

CCCCCCC(O)CO (stereo not given) + CCCCCCCC[N+](CCCCCCCC)(CCCCCCCC)CCCCCCCC.[Br-] + [Cl-].[Cl-].[Co+2]
Conditions	viscosity [mPa·s]
296.1 K, 101.3 kPa, x2 = 0.4, x3 = 0.2	27000

CCCCCCCCCCCCOS(=O)(=O)[O-].CCCC[n+]1ccn(C)c1 + O
Conditions	viscosity [mPa·s]
333 K, 101 kPa, x1 = 0.06262	970000

CCCCCCCCCCOS(=O)(=O)[O-].CC[n+]1ccn(C)c1 + O
101 kPa, frequency 0.0005 MHz, x1 = 0.075
Conditions	electrical conductivity [S/m]
308.15 K	2.87
363.15 K	6.86

CCO + CCOP(=O)([O-])OCC.CC[N+]1(C)CCCC1
100 kPa, x2 = 0
Conditions	viscosity [mPa·s]
293.15 K	1.18
298.15 K	1.11
303.15 K	0.98
308.15 K	0.89
313.15 K	0.82
318.15 K	0.75
323.15 K	0.69
328.15 K	0.65
333.15 K	0.6
338.15 K	0.56

CC[S+](CC)CCOCC[S+](CC)CC.N#C[N-]C#N.N#C[N-]C#N + CC[n+]1ccn(C)c1.N#C[N-]C#N + O=S(=O)([N-]S(=O)(=O)C(F)(F)F)C(F)(F)F.[Li+]
100 kPa, x1 = 0.2884, x2 = 0.6258
Conditions	electrical conductivity [S/m]
298 K	0.519
303 K	0.632
313 K	0.863
323 K	1.17
333 K	1.54
343 K	1.95

CC[S+](CC)CC.O=S(=O)([N-]S(=O)(=O)C(F)(F)F)C(F)(F)F + CCCO
Conditions	viscosity [mPa·s]
313.15 K, 100 kPa, x1 = 0.6987	10.75

CCO + CCOP(=O)([O-])OCC.CC[n+]1ccn(C)c1
Conditions	viscosity [mPa·s]
318.15 K, 100 kPa, x2 = 0	0.75

CCO + CC[n+]1ccn(C)c1.N#C[N-]C#N
viscosity [mPa·s]
Conditions	298.15 K	303.15 K	308.15 K	313.15 K	318.15 K	323.15 K	328.15 K
100 kPa, x2 = 0	1.11	1.02	0.93	0.85	0.78	0.71	–
101 kPa, x1 = 1	–	–	–	0.83	–	–	0.64

CCCCCC[N+]1(C)CCCC1.O=S(=O)([N-]S(=O)(=O)C(F)(F)F)C(F)(F)F + Cc1ccccc1
100 kPa
Conditions	viscosity [mPa·s]
293.15 K, x2 = 0.3938	37.27
293.15 K, x2 = 0.7993	4.124
303.15 K, x2 = 0.5961	11.17
308.15 K, x2 = 0.29	30.33
308.15 K, x2 = 0.7993	3.15
313.15 K, x2 = 0	51

— the CheMixHub ionic liquid set
